Measured values taken from patent US11541055B2, “Inhibitors of human immunodeficiency virus replication” (ViiV Healthcare UK (No. 5) LIMITED, priority 2018, dated 2023).

What was measured:
[1] = Compound cytotoxicity, XTT-based colorimetric assay; format: cell-based; conditions: human; uninfected MT2 cells, day 4, XTT
Outline: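 Run under the antiviral-assay protocol but without virus. Viability was read on day 4 and CC50 values were derived from the readout.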

[2] = tested on: recombinant NL4-3 virus (Renilla luciferase) in MT-2 cells; assay: HIV cell culture assay (antiviral activity, luciferase readout); format: cell-based; conditions: Renilla, NL43
Outline: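 MT-2 cells were infected with recombinant NL4-3 virus carrying Renilla luciferase in place of part of nef. Cells were cultured 4–5 days with serially diluted compound, and luciferase was measured with a live-cell substrate. EC50 was calculated from the median effect equation.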

| Structure (SMILES) | CC50 at 4 days [1] [nM] | EC50 [2] [nM] |
| --- | --- | --- |
| CC(C)c1cccc(-c2ccc3c(=O)n(-c4ccc(Cl)c5c(NS(C)(=O)=O)nn(C)c45)c([C@H](Cc4cc(F)cc(F)c4)NC(=O)Cn4nc(C(F)F)c5c4C(F)(F)[C@@H]4C[C@H]54)nc3c2)n1 (atropisomer, axis not shown; (P)) [Example 46, N—((S)-1-((3P)-3-(4-chloro-1-methyl-3-(methylsulfonamido)-1H-indazol-7-yl)-7-(6-isopropylpyridin-2-yl)-4-oxo-3,4-dihydroquinazolin-2-yl)-2-(3,5-difluorophenyl)ethyl)-2-((3bS,4aR)-3-(difluoromethyl)-5,5-difluoro-3b,4,4a,5-tetrahydro-1H-cyclopropa[3,4]cyclopenta[1,2-c]pyrazol-1-yl)acetamide] | > 500 | 0.23 |
| Cn1nc(NS(C)(=O)=O)c2c(Cl)ccc(-n3c([C@H](Cc4cc(F)cc(F)c4)NC(=O)Cn4nc(C(F)F)c5c4C(F)(F)[C@@H]4C[C@H]54)nc4cc(-c5ncccc5C(F)(F)F)ccc4c3=O)c21 (atropisomer, axis not shown; (P)) [Example 30, N—((S)-1-((3P)-3-(4-chloro-1-methyl-3-(methylsulfonamido)-1H-indazol-7-yl)-4-oxo-7-(3-(trifluoromethyl)pyridin-2-yl)-3,4-dihydroquinazolin-2-yl)-2-(3,5-difluorophenyl)ethyl)-2-((3bS,4aR)-3-(difluoromethyl)-5,5-difluoro-3b,4,4a,5-tetrahydro-1H-cyclopropa[3,4]cyclopenta[1,2-c]pyrazol-1-yl)acetamide] | > 500 | 0.22 |
| COc1cnc(-c2ccc3c(=O)n(-c4ccc(Cl)c5c(NS(C)(=O)=O)nn(CC(F)(F)F)c45)c([C@H](Cc4cc(F)cc(F)c4)NC(=O)Cn4nc(C(F)F)c5c4C(F)(F)[C@@H]4C[C@H]54)nc3c2)nc1 (atropisomer, axis not shown) [Example 115, N-[(1S)-1-{3-[4-chloro-3-methanesulfonamido-1-(2,2,2-trifluoroethyl)-1H-indazol-7-yl]-7-(5-methoxypyrimidin-2-yl)-4-oxo-3,4-dihydroquinazolin-2-yl}-2-(3,5-difluorophenyl)ethyl]-2-[(2S,4R)-9-(difluoromethyl)-5,5-difluoro-7,8-diazatricyclo[4.3.0.0^2,^4]nona-1(6),8-dien-7-yl]acetamide] | > 500 | 0.098 |
| CCc1ncncc1-c1ccc2c(=O)n(-c3ccc(Cl)c4c(NS(C)(=O)=O)nn(C)c34)c([C@H](Cc3cc(F)cc(F)c3)NC(=O)Cn3nc(C(F)F)c4c3C(F)(F)[C@@H]3C[C@H]43)nc2c1 (atropisomer, axis not shown; (P)) [Example 60, N—((S)-1-((3P)-3-(4-chloro-1-methyl-3-(methylsulfonamido)-1H-indazol-7-yl)-7-(4-ethylpyrimidin-5-yl)-4-oxo-3,4-dihydroquinazolin-2-yl)-2-(3,5-difluorophenyl)ethyl)-2-((3bS,4aR)-3-(difluoromethyl)-5,5-difluoro-3b,4,4a,5-tetrahydro-1H-cyclopropa[3,4]cyclopenta[1,2-c]pyrazol-1-yl)acetamide] | > 500 | 0.077 |
| CN(c1cccc(-c2ccc3c(=O)n(-c4ccc(Cl)c5c(NS(=O)(=O)C6CC6)nn(CC(F)F)c45)c([C@H](Cc4cc(F)cc(F)c4)NC(=O)Cn4nc(C(F)F)c5c4C(F)(F)[C@@H]4C[C@H]54)nc3c2)c1)S(C)(=O)=O (atropisomer, axis not shown) [Example 148, N-[(1S)-1-{3-[4-chloro-3-cyclopropanesulfonamido-1-(2,2-difluoroethyl)-1H-indazol-7-yl]-7-[3-(N-methylmethanesulfonamido)phenyl]-4-oxo-3,4-dihydroquinazolin-2-yl}-2-(3,5-difluorophenyl)ethyl]-2-[(2S,4R)-9-(difluoromethyl)-5,5-difluoro-7,8-diazatricyclo[4.3.0.0^2,^4]nona-1(6),8-dien-7-yl]acetamide] | > 500 | 0.28 |
